PubChem BioAssay AID1259411 (Chemical Carcinogenesis Research Information System (CCRIS), 2018)
Activity calls are given as the source filed them. No rule for the calls is given here.

System: rodent carcinogenicity bioassays, tumor incidence
Assay: CCRIS carcinogenicity studies
Procedure, shortened: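 NCI-built, expert-reviewed records of carcinogenicity and related test outcomes (mutagenicity, tumor promotion/inhibition) compiled from published and report sources, historical span 1985-2011, not updated.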

CCCCC(CC)COC(=O)c1ccc(C(=O)OCC(CC)CCCC)cc1 (stereo unspecified)
carcinogen call (Species: Rat, Strain/Sex: Fischer 344/Female, Route: Oral, Dose: 0, 1500, 6000, 12,000 ppm in diet for 104 wk (average daily dose 0, 102, 418, 901 mg/kg/day), Dose: 0, 1500, 6000, 12,000 ppm in diet for 104 wk (average daily dose 0, 102, 418, 901 mg/kg/day)): inactive; negative
carcinogen call (Species: Rat, Strain/Sex: Fischer 344/Male, Route: Oral, Dose: 0, 1500, 6000, 12,000 ppm in diet for 104 wk (average daily dose 0, 79, 324, 666 mg/kg/day), Dose: 0, 1500, 6000, 12,000 ppm in diet for 104 wk (average daily dose 0, 79, 324, 666 mg/kg/day)): inactive; negative

CCC(=O)CNCN=O
carcinogen call (Species: HAMSTER, Strain/Sex: SYRIAN/FEMALE, Route: SUBCUTANEOUS, Dose: 4, 8, 16 MG/KG 1/WK FOR LIFE, Dose: 4, 8, 16 MG/KG 1/WK FOR LIFE, Tumor Site: Type of Lesion: NASAL CAVITY: ADENOCARCINOMA, PAPILLOMA, MUCOEPIDERMOID TUMOR, LARYNX OR PHARYNX: PAPILLARY POLYP, PAPILLOMA, ORAL CAVIT, Tumor Site: Type of Lesion: NASAL CAVITY: ADENOCARCINOMA, PAPILLOMA, MUCOEPIDERMOID TUMOR, LARYNX OR PHARYNX: PAPILLARY POLYP, PAPILLOMA, ORAL CAVIT): active; positive
carcinogen call (Species: HAMSTER, Strain/Sex: SYRIAN/MALE, Route: SUBCUTANEOUS, Dose: 2.3, 4.6, 9.2 MG/KG 1/WK FOR LIFE, Dose: 2.3, 4.6, 9.2 MG/KG 1/WK FOR LIFE, Tumor Site: Type of Lesion: NASAL CAVITY: ADENOCARCINOMA, PAPILLOMA, MUCOEPIDERMOID TUMOR, LARYNX OR PHARYNX: PAPILLARY POLYP, PAPILLOMA, ORAL CAVIT, Tumor Site: Type of Lesion: NASAL CAVITY: ADENOCARCINOMA, PAPILLOMA, MUCOEPIDERMOID TUMOR, LARYNX OR PHARYNX: PAPILLARY POLYP, PAPILLOMA, ORAL CAVIT): active; positive

O=c1c(O)c(-c2ccc(O)c(O)c2)oc2cc(O)cc(O)c12
carcinogen call (Species: RAT, Strain/Sex: F344/FEMALE, Route: ORAL, Dose: 0, 0.1, 0.2% IN DIET FOR DURATION OF STUDY (STUDY DURATION: 64 WK), Dose: 0, 0.1, 0.2% IN DIET FOR DURATION OF STUDY (STUDY DURATION: 64 WK)): inactive; negative
carcinogen call (Species: RAT, Strain/Sex: F344/FEMALE, Route: ORAL, Dose: 0, 1.25, 5.0% IN DIET FOR 104 WK (STUDY DURATION: 112 WK), Dose: 0, 1.25, 5.0% IN DIET FOR 104 WK (STUDY DURATION: 112 WK)): inactive; negative
carcinogen call (Species: RAT, Strain/Sex: F344/FEMALE, Route: ORAL, Dose: 0, 1,000, 10,000, 40,000 PPM IN DIET FOR 104 WK (STUDY DURATION: 104 WK), Dose: 0, 1,000, 10,000, 40,000 PPM IN DIET FOR 104 WK (STUDY DURATION: 104 WK)): inactive; negative
carcinogen call (Species: RAT, Strain/Sex: F344/MALE, Route: ORAL, Dose: 0, 0.1, 0.2% IN DIET FOR DURATION OF STUDY (STUDY DURATION: 64 WK), Dose: 0, 0.1, 0.2% IN DIET FOR DURATION OF STUDY (STUDY DURATION: 64 WK)): inactive; negative
carcinogen call (Species: RAT, Strain/Sex: F344/MALE, Route: ORAL, Dose: 0, 1.25, 5.0% IN DIET FOR 104 WK (STUDY DURATION: 112 WK), Dose: 0, 1.25, 5.0% IN DIET FOR 104 WK (STUDY DURATION: 112 WK)): inactive; negative
carcinogen call (Species: RAT, Strain/Sex: F344/MALE, Route: ORAL, Dose: 0, 1,000, 10,000, 40,000 PPM IN DIET FOR 104 WK (STUDY DURATION: 104 WK), Dose: 0, 1,000, 10,000, 40,000 PPM IN DIET FOR 104 WK (STUDY DURATION: 104 WK), Tumor Site: Type of Lesion: KIDNEY (RENAL TUBULE): ADENOMA): active; positive

CCN(Cc1cccc(S(=O)(=O)O)c1)c1ccc(C(=C2C=CC(=[N+](CC)Cc3cccc(S(=O)(=O)O)c3)C=C2)c2ccccc2S(=O)(=O)[O-])cc1
carcinogen call (Species: MOUSE, Strain/Sex: CD-1/FEMALE, Route: ORAL, Dose: 0, 0.5, 1.5, 5% IN DIET FOR 104 WK (STUDY DURATION: LIFETIME), Dose: 0, 0.5, 1.5, 5% IN DIET FOR 104 WK (STUDY DURATION: LIFETIME)): inactive; negative
carcinogen call (Species: MOUSE, Strain/Sex: CD-1/MALE, Route: ORAL, Dose: 0, 0.5, 1.5, 5% IN DIET FOR 104 WK (STUDY DURATION: LIFETIME), Dose: 0, 0.5, 1.5, 5% IN DIET FOR 104 WK (STUDY DURATION: LIFETIME)): inactive; negative
carcinogen call (Species: MOUSE, Strain/Sex: ICR/FEMALE, Route: DERMAL, Dose: 0, 1 MG IN 0.1 ML DISTILLED WATER 2/WK FOR A MEAN TOTAL DOSE OF 128.8 MG (STUDY DURATION: 18 MO)): inactive; negative
carcinogen call (Species: MOUSE, Strain/Sex: ICR/MALE, Route: DERMAL, Dose: 0, 1 MG IN 0.1 ML DISTILLED WATER 2/WK FOR A MEAN TOTAL DOSE OF 128.8 MG (STUDY DURATION: 18 MO)): inactive; negative
carcinogen call (Species: RAT, Route: SUBCUTANEOUS, Tumor Site: Type of Lesion: INJECTION SITE): active; positive
carcinogen call (Species: RAT, Strain/Sex: STRAIN-CD/FEMALE, Route: ORAL, Dose: 0, 0.1, 1, 2% IN DIET FOR 111 WK (PARENTS FED 0; 0.1; 1; 2% RESPECTIVELY IN DIET) (STUDY DURATION: LIFETIME), Dose: 0, 0.1, 1, 2% IN DIET FOR 111 WK (PARENTS FED 0; 0.1; 1; 2% RESPECTIVELY IN DIET) (STUDY DURATION: LIFETIME)): inactive; negative
carcinogen call (Species: RAT, Strain/Sex: STRAIN-CD/MALE, Route: ORAL, Dose: 0, 0.1, 1, 2% IN DIET FOR 116 WK (PARENTS FED 0; 0.1; 1; 2% RESPECTIVELY IN DIET) (STUDY DURATION: LIFETIME), Dose: 0, 0.1, 1, 2% IN DIET FOR 116 WK (PARENTS FED 0; 0.1; 1; 2% RESPECTIVELY IN DIET) (STUDY DURATION: LIFETIME)): inactive; negative

Cc1cccc(C)c1NC1=NCCCS1
carcinogen call (Species: RAT, Strain/Sex: F344/MALE, Route: ORAL, Dose: 0, 1,000 PPM IN FEED FOR 52 WK (STUDY DURATION: 52 WK), Tumor Site: Type of Lesion: THYROID: ADENOMA): active; positive

Cc1cc(NS(=O)(=O)c2ccc(N)cc2)no1
carcinogen call (Species: RAT, Strain/Sex: CD-1/MALE,FEMALE, Route: ORAL, Dose: 25, 50, 150, 300, 600 MG/KG/D IN DIET FOR 60 WK, Dose: 25, 50, 150, 300, 600 MG/KG/D IN DIET FOR 60 WK, Tumor Site: Type of Lesion: THYROID GLAND: ADENOMA OR NODULES): active; positive

C=C(C)C(=O)OC
carcinogen call (Species: HAMSTER, Strain/Sex: GOLDEN/FEMALE, Route: INHALATION, Dose: 0, 25, 100, 400 PPM IN AIR 6 HR/D 5 D/WK FOR 18 MO (STUDY DURATION: 78 WK), Dose: 0, 25, 100, 400 PPM IN AIR 6 HR/D 5 D/WK FOR 18 MO (STUDY DURATION: 78 WK)): inactive; negative
carcinogen call (Species: HAMSTER, Strain/Sex: GOLDEN/MALE, Route: INHALATION, Dose: 0, 25, 100, 400 PPM IN AIR 6 HR/D 5 D/WK FOR 18 MO (STUDY DURATION: 78 WK), Dose: 0, 25, 100, 400 PPM IN AIR 6 HR/D 5 D/WK FOR 18 MO (STUDY DURATION: 78 WK)): inactive; negative
carcinogen call (Species: MOUSE, Strain/Sex: B6C3F1/FEMALE, Route: INHALATION, Dose: 0, 500, 1000 PPM 6 HR/D, 5 D/WK FOR 102 WK, Dose: 0, 500, 1000 PPM 6 HR/D, 5 D/WK FOR 102 WK): inactive; negative
carcinogen call (Species: MOUSE, Strain/Sex: B6C3F1/MALE, Route: INHALATION, Dose: 0, 500, 1000 PPM 6 HR/D, 5 D/WK FOR 102 WK, Dose: 0, 500, 1000 PPM 6 HR/D, 5 D/WK FOR 102 WK): inactive; negative
carcinogen call (Species: RAT, Strain/Sex: F344/FEMALE, Route: INHALATION, Dose: 0, 25, 100, 400 PPM IN AIR 6 HR/D 5 D/WK FOR 24 MO (STUDY DURATION: 104-106 WK), Dose: 0, 25, 100, 400 PPM IN AIR 6 HR/D 5 D/WK FOR 24 MO (STUDY DURATION: 104-106 WK)): inactive; negative
carcinogen call (Species: RAT, Strain/Sex: F344/FEMALE, Route: INHALATION, Dose: 0, 250, 500 PPM 6 HR/D, 5 D/WK FOR 102 WK, Dose: 0, 250, 500 PPM 6 HR/D, 5 D/WK FOR 102 WK): inactive; negative
carcinogen call (Species: RAT, Strain/Sex: F344/MALE, Route: INHALATION, Dose: 0, 25, 100, 400 PPM IN AIR 6 HR/D 5 D/WK FOR 24 MO (STUDY DURATION: 104-106 WK), Dose: 0, 25, 100, 400 PPM IN AIR 6 HR/D 5 D/WK FOR 24 MO (STUDY DURATION: 104-106 WK)): inactive; negative
carcinogen call (Species: RAT, Strain/Sex: F344/MALE, Route: INHALATION, Dose: 0, 500, 1,000 PPM 6 HR/D, 5 D/WK FOR 102 WK, Dose: 0, 500, 1,000 PPM 6 HR/D, 5 D/WK FOR 102 WK): inactive; negative

CC1CN(N=O)C(=O)O1 (stereo unspecified)
carcinogen call (Species: HAMSTER, Strain/Sex: SYRIAN/FEMALE, Route: GAVAGE, Dose: 0, 14 MG/ML ((0.2 ML OF A SOLUTION IN ETHYL ACETATE/CORN OIL (1:2)) 1/WK FOR 28 WK (STUDY DURATION: LIFE SPAN), Tumor Site: Type of Lesion: FORESTOMACH: SQUAMOUS CELL CARCINOMA OR PAPILLOMA): active; positive

[Cr]
carcinogen call (Species: HUMAN, Route: INHALATION, ORAL, Tumor Site: Type of Lesion: LUNG): active; positive

Nc1ccccc1N
carcinogen call (Species: MOUSE, Route: ORAL, Tumor Site: Type of Lesion: LIVER): active; positive
carcinogen call (Species: RAT, Route: ORAL, Tumor Site: Type of Lesion: LIVER): active; positive
